These results are taken from publication PMC6914834, “New Dihydroisocoumarin Root Growth Inhibitors From the Sponge-Derived Fungus Aspergillus sp. NBUF87” (Frontiers in Microbiology, 2019).

Broadly, the EC50 is the concentration at which the effect is half-maximal. A word on the MIC: it is the lowest concentration found to suppress growth.

In one assay the test system is CCRF-CEM. The experiment in a line: In vitro cancer cell cytotoxicity (MTT), CCRF-CEM. The assay is classed as cell-based. The settings on record: Homo sapiens, positive control, quantity not given. The method, then: (§1) 7-Ethyl-10-hydroxycamptothecin (1.3, 10.8, 9.9, and 4.2 nM, respectively) was used as the positive control against four above-mentioned human cancer cell lines.

The next assay concerns HCT-116. The experiment in a line: In vitro cancer cell cytotoxicity (MTT), HCT-116. In kind it is cell-based. The settings on record: Homo sapiens, positive control, quantity not given. The method, then: as §1
In a further assay the test system is AGS. The experiment in a line: In vitro cancer cell cytotoxicity (MTT), AGS. The following applies: Homo sapiens, positive control, quantity not given. The assay is classed as cell-based. Here is the method: as §1
The next assay deals with MDA-MB-231. The experiment in a line: In vitro cancer cell cytotoxicity (MTT), MDA-MB-231. The following applies: Homo sapiens, MDA-MB-231, read-out: cytotoxicity of positive control, MDA-MB-231.
The test system of another assay is Plasmodium falciparum W2. The experiment in a line: In vitro antimalarial activity assay. The assay is classed as cell-based. Here is the method: The in vitro antimalarial activity of the compounds was evaluated against the parasite (Plasmodium falciparum W2), which was cultured continuously according to a previously described method ([Lazaro et al., 2006]).

Assay [1] relates to methicillin-resistant Staphylococcus aureus ATCC43300. The experiment in a line: Antibacterial activity assay, MRSA. In kind it is cell-based. The following applies: 96-well plates, read-out: MIC, methicillin-resistant S. aureus ATCC43300. The method, then: Compounds 1−11 were evaluated for their antibacterial activities against methicillin-resistant Staphylococcus aureus ATCC43300 and Escherichia coli ATCC25922 in 96-well plates according to the method described by [Gu et al. (2018)]. Ciprofloxacin was selected as a positive control against the above-mentioned bacteria with MIC values of 0.5 μg/mL.

Assay [2] relates to Arabidopsis thaliana Columbia-0 (Col-0). Put plainly: Plant growth response assay (root growth). In kind it is in vivo. The settings on record: 100 μM. The method, then:
Arabidopsis thaliana Col-0, a model organism for plant growth and development, was used to test each isolated compound according to a previously described protocol ([Li X. et al., 2018]; [Huang et al., 2019]). Plants grown in 2% (v/v) DMSO were used as the negative control. Seeds of Col-0 incubated in 1 μM of 6-benzylaminopurine (BAP) were selected as the positive control. Test samples were dissolved in 2% (v/v) DMSO at various test concentrations for the experiment.

Where [3] appears, read: W2, in vitro, positive controls, read-out: EC50, P. falciparum W2 (positive controls).

The structures appear in SMILES notation. Converted amounts (≈) assume the structure as drawn. Like-named read-outs stand apart in the source and are kept apart here.

For the compound `CCc1c2c(nc3ccc(O)cc13)-c1cc3c(c(=O)n1C2)COC(=O)[C@]3(O)CC` [7-Ethyl-10-hydroxycamptothecin], the IC50 in the assay with CCRF-CEM came out at 1.3 nM; with HCT-116, 9.9 nM; with AGS, 4.2 nM; in the assay with MDA-MB-231, 10.8 nM. For the compound `CCN(CC)CCCC(C)Nc1ccnc2cc(Cl)ccc12` (stereo not shown) [Chloroquine], in the assay with Plasmodium falciparum W2 (W2, read-out: EC50, P. falciparum W2 (positive controls)), the EC50 worked out at 112 nM. `O=C(O)c1cn(C2CC2)c2cc(N3CCNCC3)c(F)cc2c1=O` [Ciprofloxacin]: the MIC in assay [1] amounted to 0.5 µg/mL (≈ 1.51 µM). In the case of `C[C@H](O)CCC[C@@H]1Cc2c(O)ccc(O)c2C(=O)O1` [Compound 1, aspergimarin A], the “root growth inhibitory activity in plant growth response assay” value in assay [2] is “root growth inhibitory activity was observed”. Further, the “inhibitory effect on lateral root growth of Col-0” value in assay [2] (10 days after seed germination) was “significant inhibitory effect”. For the compound `C[C@H](O)CCC[C@H]1OC(=O)c2c(O)cccc2[C@@H]1O` [Compound 5, aspergimarin E], the “root growth inhibitory activity in plant growth response assay” value in assay [2] was “root growth inhibitory activity was observed”. In addition, in assay [2] (10 days after seed germination), the “inhibition of primary root growth of Col-0” value is listed as “notable inhibition” and the “inhibitory effect on lateral root growth of Col-0” value was “notable inhibition”. Consider `C[C@@H]1CC[C@H]2[C@@H](C)C(=O)O[C@@H]3O[C@@]4(C)CC[C@@H]1[C@]32OO4` [artemisinin], for which, in the assay with Plasmodium falciparum W2 (setting [3]), the EC50 worked out at 160 nM. As to `O=C1C(O)=C([C@H]2CC[C@H](c3ccc(Cl)cc3)CC2)C(=O)c2ccccc21` [atovaquone], the EC50 in the assay with Plasmodium falciparum W2 (setting [3]) was found to be 2.5 nM.
